What was measured:
[1] = target: T1, A3 AR (Homo sapiens, UniProt P0DMS8); experiment: Radioligand binding at A3 AR ([125I]AB-MECA, CHO cell membranes)
T1 construct: expressed in transfected cells; host or cells: CHO cells, stably transfected
T1 sequence (P0DMS8 1-318): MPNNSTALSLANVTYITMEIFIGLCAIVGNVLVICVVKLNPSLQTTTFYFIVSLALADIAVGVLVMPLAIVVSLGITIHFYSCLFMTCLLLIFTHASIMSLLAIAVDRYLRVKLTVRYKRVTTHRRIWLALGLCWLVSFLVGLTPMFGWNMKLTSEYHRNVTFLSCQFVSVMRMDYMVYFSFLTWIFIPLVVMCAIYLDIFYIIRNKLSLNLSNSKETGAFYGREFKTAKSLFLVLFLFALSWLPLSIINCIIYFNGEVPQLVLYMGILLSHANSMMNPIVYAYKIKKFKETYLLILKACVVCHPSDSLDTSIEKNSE
Experimental: (§1) CHO (Chinese hamster ovary) cells stably expressing the recombinant human ARs were cultured in Dulbecco's modified Eagle medium (DMEM) and F12 (1:1) supplemented with 10% fetal bovine serum, 100 units/mL penicillin, 100 μg/mL streptomycin, and 2 μmol/mL glutamine. After harvesting, cells were homogenized and suspended. Cells were then centrifuged at 500 g for 10 min, and the pellet was resuspended in 50 mM Tris-HCl buffer (pH 7.5) containing 10 mM MgCl2. The suspension was homogenized and was then recentrifuged at 20 000 g for 20 min at 4°C. The resultant pellets were resuspended in Tris buffer, incubated with adenosine deaminase for 30 min at 37°C, and the suspension was stored at -80°C until the binding experiments. The protein concentration was measured using the BCA Protein Assay Kit from Pierce.
(§2) Radioligand binding assays were performed for A1 and A2A ARs, following the procedure described previously. Each tube in the binding assay contained 100 μL of membrane suspension (20 μg of protein), 50 μL of agonist radioligand, and 50 μL of increasing concentrations of the test ligands in Tris-HCl buffer (50 mM, pH 7.5) containing 10 mM MgCl2. The concentration of the dendrimer-ligand complexes are measured by the concentration of the dendrimer, not the ligand. Therefore, all Ki values are measured as Ki app values. Nonspecific binding was determined using a final concentration of 10 μM 5'-N-ethylcarboxamidoadenosine diluted with the buffer. The mixtures were incubated at 25°C for 60 min. Binding reactions were terminated by filtration through Whatman GF/B filters under a reduced pressure using a MT-24 cell harvester (Brandell, Gaithersburg, MD). Filters were washed three times with 5 mL of 50 mM ice-cold Tris-HCl buffer (pH 7.5). […] All of the filters were washed 3 times with Tris-HCl, pH 7.5. Filters for A1 and A2A AR binding were placed in scintillation vials containing 5 mL of Hydrofluor scintillation buffer and counted using a Perkin Elmer Liquid Scintillation Analyzer. Filters for A3 AR binding were counted using a Packard Cobra II γ-counter. The Ki values were determined using GraphPad Prism for all assays.

[2] = tested on: ten-min bilateral cerebrovascular occlusion; conditions: cited from earlier work
[3] = target: T2, A1 AR (Homo sapiens, UniProt P30542); experiment: cAMP assay (inhibition of forskolin-stimulated adenylyl cyclase) in CHO cells expressing A1 AR; type: cell-based; conditions: for EC50: cAMP inhibition, mean ± SEM, n = 3; for A1 (adenylyl cyclase), class word: at 10 μM, relative to total inhibition by ADAC
T2 sequence (P30542 1-326): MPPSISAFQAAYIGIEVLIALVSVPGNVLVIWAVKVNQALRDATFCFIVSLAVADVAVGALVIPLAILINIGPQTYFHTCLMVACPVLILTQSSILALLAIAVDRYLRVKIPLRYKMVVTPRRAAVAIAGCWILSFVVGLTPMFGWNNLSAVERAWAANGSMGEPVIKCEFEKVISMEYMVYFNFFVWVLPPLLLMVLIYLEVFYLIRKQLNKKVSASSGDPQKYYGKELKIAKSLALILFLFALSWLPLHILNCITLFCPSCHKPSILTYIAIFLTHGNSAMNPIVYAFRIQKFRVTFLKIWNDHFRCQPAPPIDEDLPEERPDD
Experimental: (§3) CHO cells expressing either the A1 or A3 AR were seeded in 24 well plates and incubated at 37°C overnight. The following day the medium was removed and replaced with DMEM containing 50 mM HEPES, 10 μM rolipram, 3 U/ml adenosine deaminase and increasing concentrations of the compounds. After a 30 min incubation at 37°C, 10 μM of forskolin was added to stimulate cAMP levels, and the cells were incubated at 37°C for an additional 15 min. The medium was removed, and the cells were lysed with 200 μl of 0.1 M HCl. 100 μl of the HCl solution was used in the Sigma Direct cAMP Enzyme Immunoassay following the instructions provided with the kit.

[4] = target: T2, A1 AR; experiment: Radioligand binding at A1 AR ([3H]CCPA, CHO cell membranes); conditions: for Difference in affinity between the human A1 and A3 ARs / Binding at the A1 AR, in words: radioligand binding; for A1 binding, class symbol: inhibition of radioligand binding at 10 μM
Experimental: as §1
Radioligand binding assays were performed for A1 and A2A ARs, following the procedure described previously. Each tube in the binding assay contained 100 μL of membrane suspension (20 μg of protein), 50 μL of agonist radioligand, and 50 μL of increasing concentrations of the test ligands in Tris-HCl buffer (50 mM, pH 7.5) containing 10 mM MgCl2. The concentration of the dendrimer-ligand complexes are measured by the concentration of the dendrimer, not the ligand. Therefore, all Ki values are measured as Ki app values. Nonspecific binding was determined using a final concentration of 10 μM 5'-N-ethylcarboxamidoadenosine diluted with the buffer. The mixtures were incubated at 25°C for 60 min. Binding reactions were terminated by filtration through Whatman GF/B filters under a reduced pressure using a MT-24 cell harvester (Brandell, Gaithersburg, MD). Filters were washed three times with 5 mL of 50 mM ice-cold Tris-HCl buffer (pH 7.5). The radioactive agonists [^3H]2-chloro-N^6-cyclopentyladenosine and [^3H]2-(4-(2-carboxyethyl)phenylethylamino)-5'-N-ethylcarboxamido-adenosine were used for the A1 and A2A assays, respectively. All of the filters were washed 3 times with Tris-HCl, pH 7.5. Filters for A1 and A2A AR binding were placed in scintillation vials containing 5 mL of Hydrofluor scintillation buffer and counted using a Perkin Elmer Liquid Scintillation Analyzer. Filters for A3 AR binding were counted using a Packard Cobra II γ-counter. The Ki values were determined using GraphPad Prism for all assays.

[5] = target: T2, A1 AR; experiment: [35S]GTPγS binding assay in CHO A1 membranes; type: biochemical; conditions: for EC50: mean ± SEM, n = 3
Experimental: as §1
[^35S]GTPγS binding was measured in 200 μl of buffer containing 50 mM Tris-HCl (pH 7.4), 1 mM EDTA, 1 mM MgCl2, 10 μM GDP, 1 mM dithiothreitol, 100 mM NaCl, 3 units/ml adenosine deaminase, 0.2 nM [^35S]GTPγS, 0.004% CHAPS, 0.5% bovine serum albumin and increasing concentrations of the ligands. Samples were started by addition of the membrane suspension (5–10 μg protein/tube) to the test tubes and incubated at 25°C for 30 min. The assay was terminated by rapid filtration through Whatman GF/B filters, pre-soaked in 50 mM Tris-HCl (pH 7.4) containing 5 mM MgCl2 and 0.02% CHAPS. Non-specific binding of [^35S]GTPγS was measured in the presence of 10 μM unlabelled GTPγS. After the filters were washed, they were placed in scintillation vials containing 5 mL of Hydrofluor scintillation buffer and counted using a Perkin Elmer Liquid Scintillation Analyzer. The EC50 values were determined using GraphPad Prism for all assays.

[6] = target: T3, A2A AR (Homo sapiens, UniProt P29274); experiment: Radioligand binding at A2A AR ([3H]CGS21680, HEK cells)
T3 construct: expressed in transfected cells; host or cells: CHO
Experimental: as §1, §2

[7] = target: T1, A3 AR; experiment: cAMP assay (inhibition of forskolin-stimulated adenylyl cyclase) in CHO cells expressing A3 AR; type: cell-based; conditions: for EC50: cAMP inhibition, mean ± SEM, n = 3; for A3 (adenylyl cyclase), class word: relative to total inhibition by ADAC
Experimental: as §3

[8] = tested on: CHO cells; experiment: Light and fluorescent microscopy of CHO cells not expressing the A3 AR; type: cell-based, Chinese hamster; conditions: 10 μM, 1 h, one wash with PBS
Experimental: (§4) After one wash with PBS, the cells were imaged at 100× magnification on a Zeiss AxioVision D1 Imager, and both light and fluorescent pictures were obtained.
(§5) CHO or CHO A3 cells were seeded on a cover disk in a 6 well dish (250,000 cells per well). After the cells were incubated for 24 hrs at 37°C, the medium was removed and replaced with DMEM containing 10 μM of the 15 or 17. The cells were incubated for 1 h at 37°C and washed one time with PBS. The images were taken with at 100× manification using a Zeiss AxioVision D1 Imager equipped with AxioVision 4.5 software.

[9] = tested on: CHO A3 cells; experiment: Light and fluorescent microscopy of CHO A3 cells; type: cell-based, Chinese hamster; conditions: 10 μM, 1 h, one wash with PBS, CHO cells stably expressing the A3 AR
Experimental: as §4, §5

[10] = inhibition of radioligand binding at 10 μM

T3 sequence (P29274 whole entry): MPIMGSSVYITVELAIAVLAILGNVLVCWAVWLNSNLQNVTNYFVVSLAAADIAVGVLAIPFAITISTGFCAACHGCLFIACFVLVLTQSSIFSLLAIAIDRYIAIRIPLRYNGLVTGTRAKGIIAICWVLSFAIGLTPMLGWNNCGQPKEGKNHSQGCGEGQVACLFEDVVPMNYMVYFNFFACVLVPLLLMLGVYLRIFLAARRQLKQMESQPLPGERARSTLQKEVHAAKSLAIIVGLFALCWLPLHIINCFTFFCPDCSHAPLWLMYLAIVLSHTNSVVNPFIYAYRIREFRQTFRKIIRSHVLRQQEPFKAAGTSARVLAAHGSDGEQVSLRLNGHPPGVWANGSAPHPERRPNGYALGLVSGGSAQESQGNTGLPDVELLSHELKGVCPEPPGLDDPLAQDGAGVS

## NCCNC(=O)Cc1ccc(NC(=O)Cc2ccc(Nc3ncnc4c3ncn4[C@@H]3O[C@H](CO)[C@@H](O)[C@H]3O)cc2)cc1 [Compound 1, N^6-[4-[[[4-[[[(2-aminoethyl)amino]carbonyl]methyl]anilino]-carbonyl]methyl]phenyl]adenosine, reference compound]
[1]
  Ki: 12.2 ± 4.1 nM
[2]; acute or chronic administration prior to occlusion
  Protection against neuronal damage and mortality: protects against neuronal damage and mortality
[2]; given up to twelve hours post-ischemia
  Neuronal protection post-ischemia: provides neuronal protection
[3]
  EC50: 400 ± 80 nM
[4]
  Ki: 10.4 ± 3.8 nM
  Difference in affinity between the human A1 and A3 ARs: < 5 fold
[5]
  EC50: 94 ± 26 nM
[6]
  Ki: 370 ± 100 nM
[7]
  EC50: 100 ± 50 nM

## O=C(O)CCc1ccc(NC(=S)NCCNC(=O)Cc2ccc(NC(=O)Cc3ccc(Nc4ncnc5c4ncn5[C@@H]4O[C@H](CO)[C@@H](O)[C@H]4O)cc3)cc2)cc1 [Compound 4, 3-(4-(3-(2-(2-(4-(2-(4-(9-((2R,3R,4S,5R)-3,4-Dihydroxy-5-(hydroxymethyl)tetrahydrofuran-2-yl)-9H-purin-6-ylamino)phenyl)acetamido)-phenyl)acetamido)ethyl)thioureido)phenyl)pro-panoic acid]
[1]
  Ki: 74 ± 20 nM
[3]
  EC50: 350 ± 20 nM
[4]
  Ki: 30 ± 9 nM
  Difference in affinity between the human A1 and A3 ARs: < 5 fold
[5]
  EC50: 1300 ± 400 nM
[6]
  Ki: 800 ± 360 nM
[7]
  EC50: 140 ± 70 nM

## NCCNCCNC(=O)Cc1ccc(NC(=O)Cc2ccc(Nc3ncnc4c3ncn4[C@@H]3O[C@H](CO)[C@@H](O)[C@H]3O)cc2)cc1 [Compound 7, N-(2-(2-Aminoethylamino)ethyl)-2-(4-(2-(4-(9-((2R,3R,4S,5R)-3,4-dihydroxy-5-(hydroxymethyl)-tetrahydrofuran-2-yl)-9H-purin-6-ylamino)-phenyl)acetamido)phenyl)acetamide]
[1]
  Ki: 9.5 ± 2 nM
[3]; A1 AR
  Fold more potent than either ADAC or 4 in adenylyl cyclase assay: 3 – 7 fold
[3]
  EC50: 89 ± 17 nM
[4]
  Ki: 43 ± 5 nM
  Difference in affinity between the human A1 and A3 ARs: < 5 fold
[5]
  Fold more potent than 4 in activation of GTPγS binding via the A1 AR: 20 fold
  EC50: 63 ± 14 nM
[6]
  Ki: 300 ± 20 nM
[7]; A3 AR
  Fold more potent than either ADAC or 4 in adenylyl cyclase assay: 3 – 7 fold
[7]
  EC50: 36 ± 13 nM

## G2.5 PAMAM – AF488 [Compound 15]
[1]; [10]
  A3 binding, class symbol: NB^b (NB, No binding. Inhibition of radioligand binding < 10% at 10 μM)
[8]
  Fluorescent binding to cells: Neither type of CHO cells were bound
[3]
  Inhibition of cAMP production at the A1 AR, in words: no binding or activity
  A1 (adenylyl cyclase), class word: inactive^c
[4]
  A1 binding, class symbol: NB^b (NB, No binding. Inhibition of radioligand binding < 10% at 10 μM)
  Binding at the A1 AR, in words: no binding
[6]; [10]
  A2A binding, class symbol: NB^b (NB, No binding. Inhibition of radioligand binding < 10% at 10 μM)
[7]; at 10 μM
  A3 (adenylyl cyclase), class word: inactive^c
[9]
  Fluorescent binding to cells: Neither type of CHO cells were bound

## G3 PAMAM – 23 Ac – AF488 [Compound 11]
[3]
  Inhibition of cAMP production at the A1 AR, in words: unable to significantly inhibit cAMP production
  A1 (adenylyl cyclase), class word: inactive^c
[4]
  A1 binding, class symbol: NB^b (NB, No binding. Inhibition of radioligand binding < 10% at 10 μM)
  Binding at the A1 AR, in words: no binding
[7]; at 10 μM
  Inhibition of cAMP production at the A3 AR, in words: unable to significantly inhibit cAMP production
  A3 (adenylyl cyclase), class word: inactive^c
